We go through six compounds from patent US4031239A, “Cyclopropanecarboxylates for systemic control of ectoparasites” (American Cyanamid Company, priority 1975, dated 1977).

Test [1] deals with Rhipicephalus sanguineus; Dermacentor variabilis. As to the kind of experiment: Systemic ixodicidal activity by the methods of the Examples, stated for both tick species together. It counts as in vivo. Conditions: trans and cis; no figures given. The source says:
(§1) Albino guinea pigs are housed individually and fed guinea pig chow and water ad libitum. One leaf of cabbage per day is also given to each guinea pig.
(§2) To the shaved back of each guinea pig, a capsule made from a 2 inch spud gasket, with the base ground down to provide greater flexibility, is glued using 3M adhesive no. 8001. Five male and five female adult Rhipicephalus sanguineus ticks are placed inside the capsule and allowed to attach to the guinea pig. A gauze material is fastened over the top of the gasket to prevent the ticks from escaping.
(§3) The guinea pigs are given a daily oral dose by gelatin capsule of either 400 or 100 mg per kilogram body weight of the test compound. […]

The subject of another test is Stomoxys calcitrans. Kind of test: Animal systemic insecticidal activity, flies fed on mice dosed by gavage (Example 3). It counts as in vivo, Stomoxys calcitrans (stable flies) fed on mice. Conditions: 18 hours feeding, mortality at 24 hours. As for the experimental part:
To determine the effectiveness of the compounds of the invention as animal systemic insecticidal agents, test compounds are mixed in 10% acetone-90% sesame oil and administered by gavage to mice each at 25, 100 and/or 400 mg/kg of animal body weight.
Adult, one day old, unfed flies Stomoxys calcitrans are then exposed to the mice for 18 hours to permit them to feed on said mice. Mortality counts are made at 24 hours and data obtained are reported below as percent control of stable flies.

The test system of another test is Rhipicephalus sanguineus. Kind of test: Systemic ixodicidal activity, daily oral dosing of tick-infested guinea pigs (Example 1). Type of test: in vivo.
Text: as §1
The diet employed in these tests is as follows:
Crude protein not less than 18.0%
Crude fat not less than 4.0%
Crude fiber not more than 16.0%
Added minerals not more than 3.5%
and consists of the following ingredients: Ground wheat, ground yellow corn, dried skimmed milk, soybean meal, dehydrated alfalfa meal, cane molasses, wheat middlings, animal fat preserved with BHA, vitamin B12 supplement; riboflavin supplement, cholin chloride, calcium pantothenate, thiamin, niacin, folic acid, ascorbic acid, vitamin A supplement, D activated sterol (source of Vitamin D3), methionine hydroxy analogue calcium, pyridoxine hydrochloride, vitamin E supplement, dicalcium phosphate, calcium carbonate, iodized salt, copper oxide sulfate, iron sulfate, iron oxide, manganous oxide, cobalt carbonate, zinc oxide.
as §2, §3

Another test concerns Dermacentor variabilis. As to the kind of experiment: Systemic ixodicidal activity, daily oral dosing of tick-infested guinea pigs (Example 2). Type of test: in vivo.
Setting [2] is: Rhipicephalus sanguineus, in Cavia porcellus, po, read-out: % Tick Mortality.

As to `CC(C)=CC1C(C(=O)OCc2cccc(Oc3ccccc3)c2)C1(C)C` (stereo not shown) [cyclopropanecarboxylic acid, 2,2-dimethyl-3-(2-methylpropenyl)-m-phenoxybenzyl ester], the “ixodicidal results compared with those in the Examples” value in test [1] is listed as “Results comparable to those in the Examples”.

With `CC(C)=CC1C(C(=O)OC(C#N)c2cccc(Oc3ccccc3)c2)C1(C)C` (stereo not shown), the “% Control of Stable Flies” value in the test on Stomoxys calcitrans (25 mg/kg by gavage) is recorded as 30%; with Stomoxys calcitrans (100 mg/kg by gavage) it was 80%; with Stomoxys calcitrans (400 mg/kg by gavage) it was 100%.

As to `CC1(C)C(C=C(Cl)Cl)C1C(=O)OCc1cccc(Oc2ccccc2)c1` (mixture of isomers) [Cyclopropanecarboxylic acid, 3-(2,2-dichlorovinyl)-2,2-dimethyl-m-phenoxybenzyl ester], in the test with Rhipicephalus sanguineus (setting [2]), the mortality at 100 mg/kg amounted to 80% and the mortality at 400 mg/kg is 100%. The “time after initial treatment during which ticks do not appear to be affected (then moribund and die shortly thereafter)” value in the test on Rhipicephalus sanguineus (daily oral dose 400 or 100 mg/kg, guinea pigs, slight color changes and some reduction in size excepted) is listed as “about 3 days”.

Turning to `CC1(C)C(C=C(Cl)Cl)C1C(=O)OCc1cccc(Oc2ccccc2)c1` (stereo not shown) [Cyclopropanecarboxylic acid, 3-(2,2-dichlorovinyl)-2,2-dimethyl-, m-phenoxybenzyl ester], in the test with Dermacentor variabilis (Dermacentor variabilis, compared with Example 1 (Rhipicephalus sanguineus)), the “susceptibility of ticks to the test compound” value is “somewhat less susceptible”. Besides, the mortality at 100 mg/kg with Dermacentor variabilis (Dermacentor variabilis, in Cavia porcellus, daily oral dose 100 mg/kg, guinea pigs) came to 0%. The mortality at 400 mg/kg in the test with Dermacentor variabilis (Dermacentor variabilis, in Cavia porcellus, daily oral dose 400 mg/kg, guinea pigs) was determined as 80%. Further, the “time after which ticks become moribund and die shortly thereafter” value with Dermacentor variabilis (method of Example 1, daily oral dose, guinea pigs) is listed as “about 5 days”.

Regarding `CC1(C)C(C=C(Cl)Cl)C1C(=O)OC(C#N)c1cccc(Oc2ccccc2)c1` (stereo not shown), the results for the “% Control of Stable Flies” value in the test with Stomoxys calcitrans (25 mg/kg by gavage), in the test with Stomoxys calcitrans (100 mg/kg by gavage) and with Stomoxys calcitrans (400 mg/kg by gavage) were 63%, 80% and 96%, respectively.

Take `CC1(C)C(C=C(Cl)Cl)C1C(=O)OCc1cccc(Oc2ccccc2)c1` (stereo not shown) [drawing 8]: the “% Control of Stable Flies” value with Stomoxys calcitrans (25 mg/kg by gavage) is listed as 36%; with Stomoxys calcitrans (100 mg/kg by gavage), 100%.
